Results from US7276519B2, “Thieno[3,2-b]pyridine-6-carbonitriles and thieno[2,3-b]pyridine-5-carbonitriles as protein kinase inhibitors” (Wyeth, priority 2002, dated 2007).
Several values for one entry are separate records, joined by “and”; a condition that tells them apart may be missing. Identical values can stand only once.

How the values were obtained:
[1] = biological target: T1, Raf-1 (c-Raf) / GST-MEK1 (Raf and/or Mek kinase); test: Raf/Mek kinase cascade assay; assay type: biochemical, human; conditions: Table 4; read-out: Raf/MEK enzyme IC50
T1 construct: Sf9 insect cell lysate containing full length 6his-tagged recombinant human c-Raf; fused on or other part: 6His tag on c-Raf; GST on MEK1
Description: Raf/Mek Kinase Cascade Assay
(Specific Activity: ˜200 U/ml). Human Non-active Mek-1-GST and human GST-MAP kinase recombinant proteins produced in E. coli).
Stock Solutions Raf/Mek Cascade Assay:
• 1. Assay Dilution Buffer (ADB): 20 mM MOPS, pH 7.2, 25 mM β-glycerol phosphate, 5 mM EGTA, 1 mM sodium orthovanadate, 1 mM dithiothreitol. • 2. Magnesium/ATP Cocktail: 500 μM cold ATP and 75 mM magnesium chloride in ADB. • 3. Active Kinase: Human Active c-Raf: Use at 0.4 U per assay point. • 4. Non-active GST-MEK1: Use at 0.1 μg per assay point. • 5. Non-active GST-p42 MAP Kinase: Use at 1.0 μg per assay point. Stock Solutions ELISA: • 1. TBST—Tris (50 mM, pH 7.5), NaCl (150 mM), Tween-20 (0.05%) • 2. Superblock (Pierce) • 3. Anti-GST Ab (Pharmacia) • 4. Anti-Phospho MAPK (Sigma) • 5. Anti-Mouse Ab/Europium conjugate (Wallac) Assay Procedure: First Stage: c-Raf Dependent Activation of GST-MEK and GST-MAPK • 1. Add […] of ADB per assay (i.e. per well of a 96 well plate) • 2. Add […] of 0.5 mM cold ATP and 75 mM magnesium chloride in ADB. • 3. Add 2 ml of c-Raf (0.4 U/assay), in conjunction with 1.6 ml non-active MEK1 ([…]). • 4. Add 4 ml of non-active GST-p42 MAP Kinase ([…]). • 5. Incubate for 60 minutes at 30° C. in a shaking incubator. • 6. Transfer this mixture to an anti-GST Ab coated 96 well plate (Nunc Immunosorb plates coated o/n with a-GST, then blocked with Pierce Superblock). • 7. Incubate for 60 minutes at 30° C. in a shaking incubator • 8. Wash 3× with TBST, add Anti-Phospho MAPK (Sigma) (1:3000) • 9. Incubate for 60 minutes at 30° C. in a shaking incubator • 10. Wash 3× with TBST, add Anti-Mouse Ab/Europium conjugate (Wallac) (1:500) • 11. Incubate for 60 minutes at 30° C. in a shaking incubator • 12. Wash 3× with TBST, Read plates in Wallac Victor model Plate Reader. • 13. Collect data analyze in Excel for single point and IC50 determinations.
Single point assay—% inhibition at 10 mg/ml (% Inhibition=1—cpd.treated sample/untreated control). IC50 determinations—done on compounds from single point assays with >80% inhibition. Typically, the Raf/Mek assay is run at compound concentrations from 10 μM to 1 nM in half log dilutions. (% inhibition is determined for each compound concentration). Multiple entries for a given compound indicate that it was tested multiple times. The results obtained measure Raf and/or Mek kinase inhibition, and for representative compounds of this invention are listed in Table 4.

LoVo cells = test: Cell based screen for inhibitors of Raf and/or Mek kinase, LoVo; parameters: species or system human; conditions: Table 4, four days incubation, SRB
Description: (§1) Cell Based Screen for Inhibitors of Raf and/or Mek Kinase.
(§2) Cell Lines: Human tumor cell lines LoVo which are known to be growth inhibited by low nM concentrations of a reference standard inhibitor of Ras and human adenocarcinoma cell line CaCo-2, which is known to be growth resistant to the same reference compound.
(§3) Cell Media: RPMI 1640 with 10% Fetal Bovine Serum supplemented with L-glutamine and Pennicilin/Streptomycin. • Compounds: Supplied usually as a 10 mM stock in 100% DMSO. • Normal Saline: 150 mM NaCl • Trichloroacetic Acid (TCA): 50% (w/v) in water • Sulforhodamine B (SRB): 0.4% (w/v) in 1% Acetic Acid • Tris Base: 10 mM in water Methods
(§4) Cells are plated at 2000 cells per well for cell line LoVo, 1,750 cells for cell line BXPC3, 1,000 cells for cell line WM266–4 and 1500 cells for cell line CaCo-2 in 96 well plates. Cells are plated in media (200 μl) and allowed to adhere overnight at 37° C. At 24 hours post plating, compounds are added directly at a volume of 0.5 μl. For the qualitative screen (compounds screened at 25 μM) compound is added directly to cells. For the quantitative screen, compound is first diluted in DMSO to generate concentrations of compound or reference standard of: 1, 5, 10 and 25 μM. It is advisable to make the dilutions in an identical 96 well plate so that compounds can be added using a multichannel micropipettor set at 0.5 μl. The cells are then incubated for four days after which the media is removed using a 12 well manifold by first tipping the plate forward at a 45 degree angle and then inserting the manifold in an upright orientation to prevent the tips of the manifold from disturbing cells at the bottom of the plate. 200 μl of normal saline is then added to each well using an 8 well multichannel pipettor, followed by the careful addition of 50 μl of 50% TCA. The plates are then incubated for 2 hours at 4° C., after which the supernatant is removed using the same technique as above and the plated washed twice with 200 μl water. The plates are then air dried and 50 μl of SRB stock solution is carefully added so that the entire bottom of each well is covered. This again can be used using an 8 well multichannel pipettor. The SRB is incubated with fixed cells for 15 minutes at room temperature after which the SRB is removed with the manifold as described above and the plates washed twice with 350 μl of 1% acetic acid per well each time. The plates are then air dried after which the bound SRB is released from protein by the addition of 200 μl of Tris base. Resolubilizing the SRB is aided by placing the plates on a rotator for 15–30 minutes. The absorbance of each well is determined at 550 or 562 nm using a microtiter plate reader.
(§5) Each compound or dilution thereof is performed in triplicate. Outliers are identified by visual inspection of the data. Each plate should have a “0” control (vehicle only).
(§6) Quantitative Assay: A standard curve is constructed by plotting the concentration of compound against the average absorbance calculated at that concentration. A curve is plotted and the concentration at which the curve passes through the 50% the absorbance mark seen in the “0” control well is the IC50 calculated for that compound. Multiple entries for a given compound indicate that it was tested multiple times.

BXPC3 cells = test: Cell based screen for inhibitors of Raf and/or Mek kinase, BXPC3; conditions: Homo sapiens, BXPC-3, 96 h; Table 4; four days incubation, SRB
Description: as §1, §2, §3, §4, §5, §6

WM266-4 cells = test: Cell based screen for inhibitors of Raf and/or Mek kinase, WM266-4; conditions: Table 4, four days incubation, SRB
Description: as §1, §2, §3, §4, §5, §6

| Compound | IC50 [1] | IC50 (LoVo cells; Homo sapiens, LoVo, 96 h) [nM] | IC50 (LoVo cells) [nM] | IC50 (BXPC3 cells) [nM] | IC50 (WM266-4 cells; Homo sapiens, WM 266-4, 96 h) [nM] | melting point [°C] | IC50 (WM266-4 cells) [nM] |
| --- | --- | --- | --- | --- | --- | --- | --- |
| Cn1ccnc1Sc1ccc(Nc2c(C#N)cnc3cc(-c4ccc(CN5CCOCC5)cc4)sc23)cc1Cl [Example 83, 7-({3-chloro-4-[(1-methyl-1H-imidazol-2-yl)thio]phenyl}amino)-2-[4-(morpholin-4-ylmethyl)phenyl]thieno[3,2-b]pyridine-6-carbonitrile] | 41 nM | 36 | 38 | > 1000 | > 1000 | 150 to 152 | – |
| Cn1ccnc1Sc1ccc(Nc2c(C#N)cnc3cc(C#CCCN4CCOCC4)sc23)cc1Cl [Example 86] | 221 nM and 332 nM | 94 | 160 | 350 | 350 | 195 to 200 | – |
| CN(C)CC#Cc1cc2ncc(C#N)c(Nc3ccc(Sc4nccn4C)c(Cl)c3)c2s1 [Example 91, 7-({3-chloro-4-[(1-methyl-1H-imidazol-2-yl)thio]phenyl}amino)-2-[3-(dimethylamino)prop-1-ynyl]thieno[3,2-b]pyridine-6-carbonitrile] | 475 nM | 64 | – | 92 | 95 | 204 to 207 | 85 |
| CCN(CC)Cc1ccc(-c2cc3ncc(C#N)c(Nc4ccc(Sc5nccn5C)c(Cl)c4)c3s2)cc1 [Example 98, 7-({3-chloro-4-[(1-methyl-1H-imidazol-2-yl)thio]phenyl}amino)-2-{4-[(diethylamino)methyl]phenyl}thieno[3,2-b]pyridine-6-carbonitrile] | 5.6 nM | 33 | – | 38 | 40 | 200 to 203 | – |
| CN1CCN(Cc2ccc(-c3cc4ncc(C#N)c(Nc5ccc(Sc6nccn6C)c(Cl)c5)c4s3)cc2)CC1 [Example 99, 7-({3-chloro-4-[(1-methyl-1H-imidazol-2-yl)thio]phenyl}amino)-2-{4-[(4-methylpiperazin-1-yl)methyl]phenyl}thieno[3,2-b]pyridine-6-carbonitrile] | 4.5 nM | 39 | – | 41 | > 1000 | 221 to 224 | – |
